Laboratory results taken from US12268694B2, “Combination pharmaceutical agents as RSV inhibitors” (Enanta Pharmaceuticals, Inc., priority 2017, dated 2025).
Where two headings read alike, the source gives them in different places.

What was measured:
[1] = system: genotype A, "Long" strain RSV; experiment: RSV-A assay: CPE protection in HEp-2 cells, ATPlite readout; format: cell-based, human respiratory syncytial virus
Outline: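 HEp-2 cells (8,000/well) with 2-fold compound dilutions in duplicate, infected with Long-strain RSV at MOI 0.1 and incubated 5 days. Cell ATP measured by ATPlite luminescence to give EC50; uninfected parallel plate gives CC50.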

[2] = system: HEp-2 cells; experiment: Cytotoxicity in parallel to the RSV-A assay (no virus), ATPlite readout; format: cell-based, human
Method: Following extensive parameter testing, the final assay is run as follows: HEp-2 cells are seeded into the inner 60 wells of a 96-well plate at 8,000 cells per well in a volume of 50 μL using Growth Media (DMEM without phenol red, 1% L-Glut, 1% Penn/Strep, 1% nonessential amino acids, 10% heat-inactivated FBS). 2-fold serial dilutions of control and test compounds are added to the wells in duplicate in a total volume of 25 μL. Viral stock is then added to the wells at a multiplicity of infection (MOI) of 0.1 in a volume of 25 μL, bringing the total volume of each well to 100 μL. The MOI is calculated using the PFU/mL, or TCID50 if unavailable. Each 96-well plate has a control column of 6 wells with cells and virus but no compound (negative control, max CPE), a column with cells but no compound or virus (positive control, minimum CPE), and a column with no cells or virus or compound (background plate/reagent control). The control wells with cells but no virus are given an additional 25 μL of growth media containing an equal quantity of sucrose as those wells receiving the viral stock in order to keep consistent in media and volume conditions. The outer wells of the plate are filled with 125 μL of moat media (DMEM, 1% Penn/Strep) to act as a thermal and evaporative moat around the test wells. Following a 5-day incubation period, the plates are read using ATPlite (50 μL added per well), which quantifies the amount of ATP (a measure of cell health) present in each well. Assay plates are read using the Envision luminometer. In parallel, cytotoxicity is examined on an additional 96-well plate treated in an identical manner, but substituting the 25 μL of viral stock for 25 μL of growth media. […] EC50 ranges are as follows: A <0.4 μM; B 0.4-0.8 μM; C >0.8 μM and CC50 ranges are as follows: A >50 μM; B 10-50 μM; C <10 μM.

[3] = human respiratory syncytial virus, HEp-2, read-out: Human RSV-A (“Long” strain) EC50

Compound	EC50 [1, 3]	CC50 [2]	EC50 ([1]; HEp-2 cells, RSV-A Long strain, ATPlite readout, read-out: Human RSV-A (“Long” strain) EC50)
O=C1Nc2ccccc2C(c2ccccc2)=NC1Nc1nnc(C2CCNCC2)o1 (centres unmarked) [Example 45]	> 0.8 µM	> 50 µM	
CN1CCC(c2nnc(NC3N=C(c4ccccc4)c4ccccc4NC3=O)o2)CC1 (centres unmarked) [Example 46]	> 0.8 µM	> 50 µM	
CC(=O)N1CCC(c2nnc(NC3N=C(c4ccccc4)c4ccccc4NC3=O)o2)CC1 (centres unmarked) [Example 47]	> 0.8 µM	> 50 µM	
O=C1Nc2ccccc2C(c2ccccc2)=NC1Nc1nnc([C@@H]2COCCN2)o1 (some centres unmarked) [Example 48]	> 0.8 µM	> 50 µM	
O=C1Nc2ccccc2C(c2ccccc2)=NC1Nc1nnc([C@H]2COCCN2)o1 (some centres unmarked) [Example 49]	> 0.8 µM	> 50 µM	
O=C1Nc2ccccc2C(c2ccccc2)=NC1Nc1nnc(-c2ccc(F)cc2F)o1 (centres unmarked) [Example 50]	> 0.8 µM	> 50 µM	
COc1ccc(-c2nnc(NC3N=C(c4ccccc4)c4ccccc4NC3=O)o2)nc1 (centres unmarked) [Example 51]	0.4 to 0.8 µM	> 50 µM	
COc1cccc(-c2nnc(NC3N=C(c4ccccc4)c4ccccc4NC3=O)o2)n1 (centres unmarked) [Example 52]	< 0.4 µM	> 50 µM	
O=C1Nc2ccccc2C(c2ccccc2)=NC1Nc1nnc(-c2ccc(F)nc2)o1 (centres unmarked) [Example 53]	0.4 to 0.8 µM	> 50 µM	
COc1ccc(-c2nnc(NC3N=C(c4ccccc4)c4ccccc4NC3=O)o2)cn1 (centres unmarked) [Example 54]	< 0.4 µM	> 50 µM	
O=C1Nc2ccccc2C(c2ccccc2)=NC1Nc1nnc(-c2ccnc(F)c2)o1 (centres unmarked) [Example 55]	< 0.4 µM	> 50 µM	
COc1ccnc(-c2nnc(NC3N=C(c4ccccc4)c4ccccc4NC3=O)o2)c1 (centres unmarked) [Example 57]	> 0.8 µM	> 50 µM	
O=C1Nc2ccccc2C(c2ccccc2)=NC1Nc1nnc(-c2cnccn2)o1 (centres unmarked) [Example 58]	> 0.8 µM	> 50 µM	
O=C1Nc2ccccc2C(c2ccccc2)=NC1Nc1nnc(-c2ncccn2)o1 (centres unmarked) [Example 59]	> 0.8 µM	> 50 µM	
O=C1Nc2ccccc2C(c2ccccc2)=NC1Nc1nnc(-c2cncnc2)o1 (centres unmarked) [Example 60]	> 0.8 µM	> 50 µM	
O=C1Nc2ccccc2C(c2ccccc2)=NC1Nc1nnc(-c2ccncc2)o1 (centres unmarked) [Example 61]	0.4 to 0.8 µM	> 50 µM	
O=C1Nc2ccccc2C(c2ccccc2)=NC1Nc1nnc(-c2cccnn2)o1 (centres unmarked) [Example 62]	> 0.8 µM	> 50 µM	
O=C1Nc2ccccc2C(c2ccccc2)=NC1Nc1nnc(-c2ccncn2)o1 (centres unmarked) [Example 63]	> 0.8 µM	> 50 µM	
COCc1cccc(-c2nnc(NC3N=C(c4ccccc4)c4ccccc4NC3=O)o2)n1 (centres unmarked) [Example 64]	> 0.8 µM	> 50 µM	
Cn1nccc1-c1nnc(NC2N=C(c3ccccc3)c3ccccc3NC2=O)o1 (centres unmarked) [Example 65]	> 0.8 µM	> 50 µM	
Cn1cc(-c2nnc(NC3N=C(c4ccccc4)c4ccccc4NC3=O)o2)cn1 (centres unmarked) [Example 66]	0.4 to 0.8 µM	> 50 µM	
Cn1ccnc1-c1nnc(NC2N=C(c3ccccc3)c3ccccc3NC2=O)o1 (centres unmarked) [Example 67]	> 0.8 µM	> 50 µM	
Cn1cnc(-c2nnc(NC3N=C(c4ccccc4)c4ccccc4NC3=O)o2)c1 (centres unmarked) [Example 68]	> 0.8 µM	> 50 µM	
O=C1Nc2ccccc2C(c2ccccc2)=NC1Nc1nnc(-c2nccs2)o1 (centres unmarked) [Example 69]	> 0.8 µM	> 50 µM	
O=C1Nc2ccccc2C(c2ccccc2)=NC1Nc1nnc(-c2ncco2)o1 (centres unmarked) [Example 70]	> 0.8 µM	> 50 µM	
Cc1ccc(-c2nnc(NC3N=C(c4ccccc4)c4ccccc4NC3=O)o2)o1 (centres unmarked) [Example 71]	> 0.8 µM	> 50 µM	
COCc1ccc(-c2nnc(NC3N=C(c4ccccc4)c4ccccc4NC3=O)o2)o1 (centres unmarked) [Example 72]	> 0.8 µM	> 50 µM	
CN(C)Cc1ccc(-c2nnc(NC3N=C(c4ccccc4)c4ccccc4NC3=O)o2)o1 (centres unmarked) [Example 73]	> 0.8 µM	> 50 µM	

Compound	EC50 [1, 3]	CC50 [2]	EC50 ([1]; HEp-2 cells, RSV-A Long strain, ATPlite readout, read-out: Human RSV-A (“Long” strain) EC50)
Cc1cc(-c2nnc(NC3N=C(c4ccccc4)c4ccccc4NC3=O)o2)on1 (centres unmarked) [Example 74]	> 0.8 µM	> 50 µM	
O=C1Nc2ccccc2C(c2ccccc2)=NC1Nc1nnc(-c2cnco2)o1 (centres unmarked) [Example 75]	> 0.8 µM	> 50 µM	
O=C1Nc2ccccc2C(c2ccccc2)=NC1Nc1nnc(-c2cncs2)o1 (centres unmarked) [Example 76]	> 0.8 µM	> 50 µM	
O=C1Nc2ccccc2C(c2ccccc2)=NC1Nc1nnc(-c2cscn2)o1 (centres unmarked) [Example 77]	0.4 to 0.8 µM	> 50 µM	
O=C1Nc2ccccc2C(c2ccccc2)=NC1Nc1nnco1 (centres unmarked) [Example 79]	> 0.8 µM	> 50 µM	
O=C1Nc2ccccc2C(c2ccccc2)=NC1Nc1nnc(-c2ccc(F)cc2)s1 (centres unmarked) [Example 80]	> 0.8 µM	> 50 µM	
O=C1Nc2ccccc2C(c2ccccc2)=NC1Nc1nnc(-c2ccccc2)s1 (centres unmarked) [Example 81]	> 0.8 µM	> 50 µM	
N#Cc1ccc(-c2nnc(NC3N=C(c4ccccc4)c4ccccc4NC3=O)s2)cc1 (centres unmarked) [Example 82]	0.4 to 0.8 µM	> 50 µM	
O=C1Nc2ccccc2C(c2ccccc2)=NC1Nc1nnc(-c2ccncc2)s1 (centres unmarked) [Example 83]	> 0.8 µM	> 50 µM	
O=C1Nc2ccccc2C(c2ccccc2)=NC1Nc1ncc(-c2ccccc2)o1 (centres unmarked) [Example 84]	> 0.8 µM	10 to 50 µM	
O=C1Nc2ccccc2C(c2ccccc2)=NC1Nc1nnc(-c2ccccc2)[nH]1 (centres unmarked) [Example 86]	> 0.8 µM	> 50 µM	
O=C1Nc2ccccc2C(c2ccccc2)=NC1Nc1nc(-c2ccccc2)ns1 (centres unmarked) [Example 87]	> 0.8 µM	10 to 50 µM	
O=C1Nc2ccccc2C(c2ccccc2)=NC1Nc1nc(N2CCOCC2)ns1 (centres unmarked) [Example 88]	> 0.8 µM	10 to 50 µM	
O=C1Nc2ccccc2C(c2ccccc2)=NC1Nc1nc(-c2ccccc2)no1 (centres unmarked) [Example 89]		10 to 50 µM	> 0.8 µM
O=C1Nc2ccccc2C(c2ccccc2)=NC1Nc1nc(-c2ccccc2)cs1 (centres unmarked) [Example 90]	> 0.8 µM	< 10 µM	
O=C1Nc2ccccc2C(c2ccccc2)=NC1Nc1cc(-c2ccccc2)ncn1 (centres unmarked) [Example 92]	> 0.8 µM	10 to 50 µM	
O=C1Nc2ccccc2C(c2ccccc2)=NC1Nc1cc(N2CCOCC2)ncn1 (centres unmarked) [Example 93]	> 0.8 µM	10 to 50 µM	
O=C1Nc2ccccc2C(c2ccccc2)=NC1Nc1cc(Oc2ccccc2)ncn1 (centres unmarked) [Example 94]	> 0.8 µM	10 to 50 µM	
O=C1Nc2ccccc2C(c2ccccc2)=NC1Nc1ccnc(-c2ccccc2)n1 (centres unmarked) [Example 96]	> 0.8 µM	10 to 50 µM	
O=C1Nc2ccccc2C(c2ccccc2)=NC1Nc1cccn(Cc2ccccc2)c1=O (centres unmarked) [Example 97]	> 0.8 µM	> 50 µM	
O=C1Nc2ccccc2C(c2ccccc2)=NC1Nc1nc2ccc(Cl)cc2o1 (centres unmarked) [Example 99]	> 0.8 µM	10 to 50 µM	
O=C1Nc2ccccc2C(c2ccccc2)=NC1Nc1nc2ccccc2o1 (centres unmarked) [Example 100]	> 0.8 µM	10 to 50 µM	
O=C1Nc2ccccc2C(c2ccccc2)=NC1Nc1nc2ccccc2s1 (centres unmarked) [Example 101]	> 0.8 µM	10 to 50 µM	
O=C1Nc2ccccc2C(c2ccccc2)=NC1Nc1nc2ccc(F)cc2o1 (centres unmarked) [Example 103]	> 0.8 µM	10 to 50 µM	
O=C1Nc2ccccc2C(c2ccccc2)=NC1Nc1nc2cc(F)ccc2o1 (centres unmarked) [Example 104]	> 0.8 µM	10 to 50 µM	
O=C1Nc2ccccc2C(c2ccccc2)=NC1Nc1nc2c(F)cccc2o1 (centres unmarked) [Example 105]	> 0.8 µM	> 50 µM	
Cc1ccc2oc(NC3N=C(c4ccccc4)c4ccccc4NC3=O)nc2c1 (centres unmarked) [Example 106]	> 0.8 µM	< 10 µM	
